Experimental findings from US8557814B2, “mTOR inhibitor salt forms” (OSI Pharmaceuticals, LLC, priority 2008, dated 2013) are described below.

One data set addresses T1, mTOR (Homo sapiens, UniProt P42345).
T1 construct: endogenous in cells; host or cells: MDA-MB-231 cells
Kind of data set: mTOR cell-based mechanistic assay: inhibition of phosphorylation of 4E-BP1 (T37/46) in MDA-MB-231 cells. To be noted: 3 h treatment. As for the experimental part:
MDA-MB-231 cells were plated in 96 well plates at 2×10^4 cells/well in 90 uL of Complete growth medium and incubated at 37° C. overnight in a CO2 incubator. […] Cell lysates' were transferred to a 96-well plate coated with 4E-BP1 antibodies to capture phospho-4E-BP1 (T37/46) and incubated overnight at 4° C. The amount of phospho-4E-BP1 in each well is further measured by incubating the wells with anti-rabbit phospho-4E-BP1 (T37/46) antibodies and a corresponding goat anti-rabbit IgG conjugated to HRP. The amount of HRP present in each well is measured by a chemiluminescence method, which corresponds to amount of phospho-4E-BP1 in each well. IC50 values were determined using a 6-point dose response curve.

The nature of another data set: Solubility in water. It counts as physicochemical.
The nature of data set [1]: Stability at 40° C. and 75% RH. It counts as physicochemical. The following applies: 30 days at 40° C. and 75% RH.
A short description of data set [2]: Vapor sorption analysis (DVS), hygroscopicity. It counts as physicochemical.

Where a name gives a salt, the structure may show the parent alone. Read-outs that look alike come from different tables or passages of the source.

For the compound `COc1cccc2cc(-c3nc([C@H]4CC[C@H](C(=O)O)CC4)n4ncnc(N)c34)[nH]c12` [trans-4-[4-amino-5-(7-methoxy-1H-indol-2-yl)-imidazo[5,1-f][1,2,4]triazin-7-yl]cyclohexanecarboxylic acid], the concentration for half-maximal inhibition (IC50) – broadly, the concentration needed to halve the response being measured – against mTOR was about 1000 nM.
Turning to `COc1cccc2cc(-c3nc([C@H]4CC[C@H](C(=O)O)CC4)n4ncnc(N)c34)[nH]c12` [Example 3, trans-4-[4-amino-5-(7-methoxy-1H-indol-2-yl)imidazo[5,1-f][1,2,4]triazin-7-yl]cyclohexanecarboxylic acid sodium salt], in “Solubility in water” (sodium salt), the solubility in water is over 30 mg/mL.
With `COc1cccc2cc(-c3nc([C@H]4CC[C@H](C(=O)O)CC4)n4ncnc(N)c34)[nH]c12` [Example 1, trans-4-[4-amino-5-(7-methoxy-1H-indol-2-yl)imidazo[5,1-f][1,2,4]triazin-7-yl]cyclohexane carboxylic acid tromethamine salt], the solubility in water result in “Solubility in water” is recorded as “approximately 6 mg/mL”. Also, in data set [1], the “stability (degradation)” value is given as “no significant degradation”. Besides, the “hygroscopicity (DVS)” value in data set [2] (at 90-95% RH) was 2-4%.
Consider “trans-4-[4-amino-5-(7-methoxy-1H-indol-2-yl)imidazo[5,1-f][1,2,4]triazin-7-yl]cyclohexane carboxylic acid calcium salt [Example 2]”, for which the “hygroscopicity, weight gain (DVS)” value in data set [2] (from 0 to 95% RH) is listed as 35%.
